# Earlier results, collected in patent US20180185286A1, “POROUS MATERIALS CONTAINING COMPOUNDS INCLUDING […] ACTIVE SPECIES” (NOVARTIS PHARMA AG, priority 2014, published 2018).
# Conditions: in the absence of being incorporated within a porous material
row,Structure (SMILES),aqueous solubility
1,O=C(O)c1ccc(-n2nc(-c3ccccc3O)nc2-c2ccccc2O)cc1 [deferasirox],38 µg/mL
2,CC(C)Cc1ccc(C(C)C(=O)O)cc1 (centres unmarked) [ibuprofen],38 µg/mL
3,COc1ccc2c(c1)c(CC(=O)O)c(C)n2C(=O)c1ccc(Cl)cc1 [indomethacin],2.5 µg/mL
4,O=C1[C@H](CC[C@H](O)c2ccc(F)cc2)[C@@H](c2ccc(O)cc2)N1c1ccc(F)cc1 [ezetimibe],essentially insoluble in aqueous solutions
5,CCOC(=O)C1=C(C)NC(C)=C(C(=O)OC)C1c1cccc(Cl)c1Cl (centres unmarked) [felodipine],19 µg/mL
